Results on 27 compounds are retold here after patent US10414739B2, “Compounds as inhibitors of the YAP/TAZ-TEAD interaction and their use in the treatment of malignant mesothelioma” (INVENTIVA, priority 2015, dated 2019).

For this test, the target named is T1, YAP-TEAD interaction (human YAP2-His6 (50-114) / human TEAD1-GST (209-426)) (Homo sapiens, UniProt P28347).
T1 construct: GST-TEAD1 (209-426) produced in E. coli; made in house; host or cells: E. coli
Description: YAP-TEAD AlphaLISA assay. Format: binding. The conditions noted are these: YAP-TEAD AlphaLISA; for Emax: 2 h, maximal % inhibition, read-out: Max Act.; for IC50: 2 h equilibration at room temperature. The procedure:
YAP-TEAD AlphaLISA Assay for IC50 Value Determination.
YAP-TEAD binding and inhibition was assessed by monitoring the engagement of YAP2 peptide (human YAP2-His6 (50-114) produced in E. coli) with TEAD (human TEAD1-GST (GST-TEAD1 (209-426) produced in E. coli) using the AlphaLisa technology (Perkin-Elmer). Specifically, in a 384 well (Axygen) 5 μl of compounds were dispensed in 100% DMSO following a semi log serial dilution, with a top concentration of […] (10 concentrations). A ‘3 partners solution’ was prepared by mixing AlphaScreen Glutathione Donor beads 15 μg/ml (PerkinElmer), Anti-6×His AlphaLisA Acceptor beads 15 μg/ml (PerkinElmer) and Human YAP2 9 nM in 100 mM NaCl, 25 mM Hepes, 0.1% BSA, 0.5% NoNidet®P40 buffer. In the 384 assay plate (Proxiplate, Perkin-Elmer)) 2 μl of compound at each concentration, 6 μl of buffer, 6 μl of hTEAD1-GST 9 nM and 6 μl of ‘3 partner solution’ were mixed. After 2 h equilibration at room temperature in the dark the plates were read on an Envision instrument (Excitation @ 680 nm/Emission @ 570 nm, Perkin Elmer).
Results were expressed as % inhibition=100×((HighControl−Cpd)/(HighControl−LowControl)), were High control is the maximum response obtained with all components and Low control is the basal response obtained with all components without GST-Tead1.
Cpd is the response obtained for test compounds.
IC50 (half maximal inhibitory concentration) was determined by fitting the concentration response curves using a 3-parameter curve fit equation and determining concentration corresponding to 50% inhibition.

Counter-ions that a name gives are not always drawn.

T1 sequence (P28347 209-426): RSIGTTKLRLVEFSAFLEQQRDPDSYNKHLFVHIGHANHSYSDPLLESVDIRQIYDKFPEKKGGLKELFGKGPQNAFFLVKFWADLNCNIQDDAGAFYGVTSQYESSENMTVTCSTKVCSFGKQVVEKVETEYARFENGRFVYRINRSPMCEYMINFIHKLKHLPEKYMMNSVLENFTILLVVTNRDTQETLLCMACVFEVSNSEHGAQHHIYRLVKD

Regarding `COc1cc(/C=N/N(C2=NS(=O)(=O)c3ccccc32)c2ccc(C(=O)O)cc2)ccc1O` [Example 38, 4-[(1,1-dioxo-1,2-benzothiazol-3-yl)-[(E)-(4-hydroxy-3-methoxy-phenyl)methyleneamino]amino]benzoic acid], the Emax amounted to 99% and the 50% inhibitory concentration (IC50) was 105000 nM.
The corresponding values for `COc1cc(/C=N/N(C)C2=NS(=O)(=O)c3ccc(C)cc32)ccc1O` [Example 25, 2-methoxy-4-[(E)-[methyl-(5-methyl-1,1-dioxo-1,2-benzothiazol-3-yl)hydrazono]methyl]phenol] are 90% and 568 nM.
With `COc1cc(/C=N/N(C)C2=NS(=O)(=O)c3cc(-c4ccccc4)ccc32)ccc1O` [Example 39, 4-[(E)-[(1,1-dioxo-6-phenyl-1,2-benzothiazol-3-yl)-methyl-hydrazono]-methyl]-2-methoxy-phenol], the Emax turned out to be 61% and the IC50 was determined as 62200 nM.
The corresponding values for `CCN(/N=C/c1ccc(O)c(OC)c1)C1=NS(=O)(=O)c2ccccc21` [Example 3, 4-[(E)-[(1,1-dioxo-1,2-benzothiazol-3-yl)-ethyl-hydrazono]methyl]-2-methoxy-phenol] are 88% and 5000 nM.
On to `COCCN(/N=C/c1ccc(O)c(OC)c1)C1=NS(=O)(=O)c2c(OC)cccc21` [Example 24, 2-methoxy-4-[(E)-[(7-methoxy-1,1-dioxo-1,2-benzothiazol-3-yl)-(2-methoxyethyl)hydrazono]methyl]phenol], for which the Emax amounted to 92% and the IC50 amounted to 902 nM.
For `COc1ccc2c(c1)C(N(CCO)/N=C/c1ccc(O)c(OC)c1)=NS2(=O)=O` [Example 11, 4-[(E)-[2-hydroxyethyl-(5-methoxy-1,1-dioxo-1,2-benzothiazol-3-yl) hydrazono]methyl]-2-methoxy-phenol] the same measures were 94% and 475 nM.
For the compound `COc1cc(/C=N/N(C2=NS(=O)(=O)c3ccccc32)C(C)C)ccc1O` [Example 36, 4-[(E)-[(1,1-dioxo-1,2-benzothiazol-3-yl)-isopropyl-hydrazono]methyl]-2-methoxy-phenol], the Emax came to 77% and it took 78000 nM to reach half-maximal inhibition (IC50).
In the case of `COc1cc(/C=N/N(C)C2=NS(=O)(=O)c3cc(C)ccc32)ccc1O` [Example 33, 2-methoxy-4-[(E)-[methyl-(6-methyl-1,1-dioxo-1,2-benzothiazol-3-yl)hydrazono]methyl]phenol], the Emax is 90% and it took 766 nM to reach half-maximal inhibition (IC50).
`COc1cc(/C=N/N(CCN2CCOCC2)C2=NS(=O)(=O)c3c(OC)cc(C)cc32)ccc1O` [Example 32, 2-methoxy-4-[(E)-[(7-methoxy-5-methyl-1,1-dioxo-1,2-benzothiazol-3-yl)-(2-morpholinoethyl)hydrazono]methyl]phenol hydrochloride]: the Emax is 95% and half-maximal inhibition (IC50) required 139 nM.
For the compound `COc1cc(/C=N/N(CCN2CCOCC2)C2=NS(=O)(=O)c3c(OC)cccc32)ccc1O` [Example 23, 2-methoxy-4-[(E)-[(7-methoxy-1,1-dioxo-1,2-benzothiazol-3-yl)-(2-morpholinoethyl)hydrazono]methyl]phenol hydrochloride], the Emax was determined as 99% and half-maximal inhibition (IC50) was put at 305 nM.
For `COCCN(/N=C/c1ccc(O)c(OC)c1)C1=NS(=O)(=O)c2ccc(OC)cc21` [Example 15, 2-methoxy-4-[(E)-[(5-methoxy-1,1-dioxo-1,2-benzothiazol-3-yl)-(2-methoxyethyl)hydrazono]methyl]phenol] the same measures were 89% and 2890 nM.
For `COCCCN(/N=C/c1ccc(O)c(OC)c1)C1=NS(=O)(=O)c2ccccc21` [Example 10], the Emax was 92% and the IC50 was found to be 5000 nM.
For `COc1cc(/C=N/N(CCN2CCOCC2)C2=NS(=O)(=O)c3ccc(C)cc32)ccc1O` [Example 26, 2-methoxy-4-[(E)-[(5-methyl-1,1-dioxo-1,2-benzothiazol-3-yl)-(2-morpholinoethyl)hydrazono]methyl]phenol hydrochloride] the same measures were 95% and 399 nM.
Regarding `COCCN(/N=C/c1ccc(O)c(OC)c1)C1=NS(=O)(=O)c2ccc(C)cc21` [Example 28, 2-methoxy-4-[(E)-[2-methoxyethyl-(5-methyl-1,1-dioxo-1,2-benzothiazol-3-yl) hydrazono]methyl]phenol], the Emax came to 94% and 2650 nM corresponded to half-maximal inhibition (IC50).
For the compound `COc1cc(/C=N/N(C)C2=NS(=O)(=O)c3cc(F)ccc32)ccc1O` [Example 41, 4-[(E)-[(6-fluoro-1,1-dioxo-1,2-benzothiazol-3-yl)-methyl-hydrazono]-methyl]-2-methoxy-phenol], the Emax worked out at 85% and half-maximal inhibition (IC50) required 5740 nM.
On to `COCCN(/N=C/c1ccc(O)c(OC)c1)C1=NS(=O)(=O)c2c(OC)cc(OC)cc21` [Example 19, 4-[(E)-[(5,7-dimethoxy-1,1-dioxo-1,2-benzothiazol-3-yl)-(2-methoxyethyl) hydrazono]methyl]-2-methoxy-phenol], for which the Emax amounted to 92% and the IC50 turned out to be 626 nM.
For `COc1cc(/C=N/N(CCCN(C)C)C2=NS(=O)(=O)c3ccccc32)ccc1O` [Example 6, 4-[(E)-[3-(dimethylamino)propyl-(1,1-dioxo-1,2-benzothiazol-3-yl)hydrazono]methyl]-2-methoxy-phenol hydrochloride] the same measures were 95% and 7040 nM.
The corresponding values for `COc1cc(/C=N/N(C)C2=NS(=O)(=O)c3c(OC)cc(C)cc32)ccc1O` [Example 31, 2-methoxy-4-[(E)-[(7-methoxy-5-methyl-1,1-dioxo-1,2-benzothiazol-3-yl)-methyl-hydrazono]methyl]phenol] are 92% and 131 nM.
For the compound `COc1cc(OC)c2c(c1)C(N(CCN1CCOCC1)/N=C/c1ccc(O)c(OC)c1)=NS2(=O)=O` [Example 18, 4-[(E)-[(5,7-dimethoxy-1,1-dioxo-1,2-benzothiazol-3-yl)-(2-morpholino-ethyl)hydrazono]methyl]-2-methoxy-phenol hydrochloride], the Emax was found to be 97% and the IC50 came to 84 nM.
Regarding `COc1cc(/C=N/N(CCO)C2=NS(=O)(=O)c3ccc(C)cc32)ccc1O` [Example 27, 4-[(E)-[2-hydroxyethyl-(5-methyl-1,1-dioxo-1,2-benzothiazol-3-yl)hydrazono]methyl]-2-methoxy-phenol], the Emax was determined as 91% and inhibition was half-maximal at 891 nM (IC50).
For `COCCN(/N=C/c1ccc(O)c(OC)c1)C1=NS(=O)(=O)c2c(OC)cc(C)cc21` [Example 30, 2-methoxy-4-[(E)-[2-methoxyethyl-(7-methoxy-5-methyl-1,1-dioxo-1,2-benzothiazol-3-yl)hydrazono]methyl]phenol] the same measures were 90% and 878 nM.
For `COc1cc(OC)c2c(c1)C(N(C)/N=C/c1ccc(O)c(OC)c1)=NS2(=O)=O` [Example 16, 4-[(E)-[(5,7-dimethoxy-1,1-dioxo-1,2-benzothiazol-3-yl)-methyl-hydrazono]methyl]-2-methoxy-phenol] the same measures were 86% and 95 nM.
Consider `COc1cc(/C=N/N(CCCO)C2=NS(=O)(=O)c3ccccc32)ccc1O` [Example 5, 4-[(E)-[(1,1-dioxo-1,2-benzothiazol-3-yl)-(3-hydroxypropyl)hydrazono]-methyl]-2-methoxy-phenol], for which the Emax was found to be 88% and the IC50 worked out at 5500 nM.
As to `COc1cc(/C=N/N(CCN2CCOCC2)C2=NS(=O)(=O)c3ccccc32)ccc1O` [Example 4, 4-[(E)-[(1,1-dioxo-1,2-benzothiazol-3-yl)-(2-morpholinoethyl)hydrazono]methyl]-2-methoxy-phenol hydrochloride], the Emax is 97% and the 50% inhibitory concentration (IC50) amounted to 615 nM.
Take `COc1cc(OC)c2c(c1)C(N(CCO)/N=C/c1ccc(O)c(OC)c1)=NS2(=O)=O` [Example 17, 4-[(E)-[(5,7-dimethoxy-1,1-dioxo-1,2-benzothiazol-3-yl)-(2-hydroxyethyl) hydrazono]methyl]-2-methoxy-phenol]: the Emax was 90% and half-maximal inhibition (IC50) was put at 150 nM.
With `COc1ccc2c(c1)C(N(C)/N=C/c1ccc(O)c(OC)c1)=NS2(=O)=O` [Example 35, 2-methoxy-4-[(E)-[(5-methoxy-1,1-dioxo-1,2-benzothiazol-3-yl)-methyl-hydrazono]methyl]phenol], the Emax was 77% and the IC50 was 354 nM.
The corresponding values for `COc1cc(/C=N/N(CCO)C2=NS(=O)(=O)c3c(OC)cccc32)ccc1O` [Example 22, 4-[(E)-[2-hydroxyethyl-(7-methoxy-1,1-dioxo-1,2-benzothiazol-3-yl) hydrazono]methyl]-2-methoxy-phenol] are 97% and 83 nM.

A word on the IC50: it is the concentration at which inhibition is half-maximal.
